Measured values published in PubChem BioAssay AID330 (DTP/NCI, 2004).
Values joined by “and” are separate entries in the source; they are usually repeats but may differ in a detail not shown here. Equal entries are not always repeated. Toxic doses and inconclusive results are not listed. The calls were made as follows: active = survival T/C of 150% or more; inactive = T/C below 125% in these data.

Tested on: P388 leukemia ip, CD2F1 mice, survival T/C
Test: NCI In Vivo Anticancer Drug Screen. Data for tumor model P388 Leukemia (intraperitoneal) in CD2F1 (CDF1) mice
Conditions: endpoint: median survival time, higher = longer survival
Summary of the method: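 Mice carrying the transplanted tumor received test compound or vehicle. Survival was recorded in each group, and the value is the treated-group measurement divided by that of the vehicle-treated control group.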

[1] = dose: 60.0 mg/kg/injection, schedule: Q01DX005 (ip), vehicle: saline with Tween-80
[2] = dose: 120.0 mg/kg/injection, schedule: Q01DX005 (ip), vehicle: saline with Tween-80
[3] = dose: 240.0 mg/kg/injection, schedule: Q01DX005 (ip), vehicle: saline with Tween-80

Measured: T/C

CC[N+](CC)(CC)c1ccccc1
inactive: dose: 6.25 mg/kg/injection, schedule: Q04DX002 (ip), vehicle: saline 105 % of control | dose: 12.5 mg/kg/injection, schedule: Q04DX002 (ip), vehicle: saline 111 % of control | dose: 25.0 mg/kg/injection, schedule: Q04DX002 (ip), vehicle: saline 100 % of control and 104 % of control

CC(NS(=O)(=O)c1ccccc1)c1ccccc1 (stereo not drawn)
inactive: dose: 100.0 mg/kg/injection, schedule: Q04DX003 (ip), vehicle: Klucel (hydroxypropylcellulose) (HPC) 100 % of control | dose: 200.0 mg/kg/injection, schedule: Q04DX003 (ip), vehicle: Klucel (hydroxypropylcellulose) (HPC) 106 % of control | dose: 400.0 mg/kg/injection, schedule: Q04DX003 (ip), vehicle: Klucel (hydroxypropylcellulose) (HPC) 113 % of control

OCc1ccn2c1CCC2
inactive: dose: 6.25 mg/kg/injection, schedule: Q01DX009 (ip), vehicle: water 107 % of control | dose: 12.5 mg/kg/injection, schedule: Q01DX009 (ip), vehicle: water 109 % of control | dose: 25.0 mg/kg/injection, schedule: Q01DX009 (ip), vehicle: water 110 % of control | dose: 50.0 mg/kg/injection, schedule: Q01DX009 (ip), vehicle: water 115 % of control | dose: 100.0 mg/kg/injection, schedule: Q01DX009 (ip), vehicle: water 109 % of control

NNC(=O)SCCC(=O)O
inactive: dose: 50.0 mg/kg/injection, schedule: Q01DX005 (ip), vehicle: saline with Tween-80 97 % of control | dose: 100.0 mg/kg/injection, schedule: Q01DX005 (ip), vehicle: saline with Tween-80 97 % of control | dose: 200.0 mg/kg/injection, schedule: Q01DX005 (ip), vehicle: saline with Tween-80 101 % of control

C=CCCCC(C#N)c1ccc2c(c1)OCO2 (stereo not drawn)
inactive: dose: 50.0 mg/kg/injection, schedule: Q01DX005 (ip), vehicle: saline 105 % of control | dose: 100.0 mg/kg/injection, schedule: Q01DX005 (ip), vehicle: saline 105 % of control | dose: 200.0 mg/kg/injection, schedule: Q01DX005 (ip), vehicle: saline 101 % of control

OCC1(OC2OC(CF)C(O)C(O)C2O)OC(CF)C(O)C1O (stereo not drawn)
inactive: dose: 60.0 mg/kg/injection, schedule: Q01DX005 (ip), vehicle: saline 102 % of control | dose: 120.0 mg/kg/injection, schedule: Q01DX005 (ip), vehicle: saline 101 % of control

CC(C)[S][Pb]([c]1ccccc1)([c]1ccccc1)[c]1ccccc1
inactive: dose: 1.25 mg/kg/injection, schedule: Q01DX009 (ip), vehicle: gum acacia 116 % of control | dose: 2.5 mg/kg/injection, schedule: Q01DX009 (ip), vehicle: gum acacia 118 % of control | dose: 5.0 mg/kg/injection, schedule: Q01DX009 (ip), vehicle: gum acacia 111 % of control | dose: 6.25 mg/kg/injection, schedule: Q04DX003 (ip), vehicle: gum acacia 97 % of control | dose: 12.5 mg/kg/injection, schedule: Q04DX003 (ip), vehicle: gum acacia 104 % of control

Fc1ccc(N(c2nc(Cl)nc(Cl)n2)c2nc(Cl)nc(Cl)n2)cc1
inactive: dose: 12.5 mg/kg/injection, schedule: Q01DX009 (ip), vehicle: saline with Tween-80 113 % of control | dose: 25.0 mg/kg/injection, schedule: Q01DX009 (ip), vehicle: saline with Tween-80 100 % of control | dose: 50.0 mg/kg/injection, schedule: Q01DX009 (ip), vehicle: saline with Tween-80 113 % of control

COC(/C=N/OC(=O)c1ccc([N+](=O)[O-])cc1)c1ccccc1 (stereo not drawn)
inactive: dose: 25.0 mg/kg/injection, schedule: Q04DX003 (ip), vehicle: saline with Tween-80 89 % of control and 92 % of control | dose: 50.0 mg/kg/injection, schedule: Q04DX003 (ip), vehicle: saline with Tween-80 92 % of control and 94 % of control

C=C1C[C@@H]2[C@H](C1=O)[C@@H]1CC[C@H]3O[C@]31C2(C)C
inactive: dose: 50.0 mg/kg/injection, schedule: Q04DX002 (ip), vehicle: Klucel (hydroxypropylcellulose) (HPC) 106 % of control | dose: 100.0 mg/kg/injection, schedule: Q04DX002 (ip), vehicle: Klucel (hydroxypropylcellulose) (HPC) 101 % of control | dose: 200.0 mg/kg/injection, schedule: Q04DX002 (ip), vehicle: Klucel (hydroxypropylcellulose) (HPC) 100 % of control

COC1C(CO)OC(n2cnc3c(=S)nc(N)[nH]c32)C1O (stereo not drawn)
inactive: dose: 100.0 mg/kg/injection, schedule: Q01DX009 (ip), vehicle: saline with Tween-80 122 % of control | dose: 264.0 mg/kg/injection, schedule: Q04DX003 (ip), vehicle: saline with Tween-80 109 % of control

COc1ccc2[nH]c(C)c(CN(C(C)=O)C(C)=O)c(=O)c2c1
inactive: [1] 103 % of control | [2] 112 % of control | [3] 86 % of control

Cc1ccoc1
inactive: dose: 7.5 mg/kg/injection, schedule: Q01DX005 (ip), vehicle: saline with Tween-80 105 % of control | dose: 15.0 mg/kg/injection, schedule: Q01DX005 (ip), vehicle: saline with Tween-80 100 % of control | dose: 30.0 mg/kg/injection, schedule: Q01DX005 (ip), vehicle: saline with Tween-80 97 % of control | [1] 98 % of control | [2] 101 % of control | [3] 106 % of control
